A short description of data set [1]: Therapeutic index, ratio of CC50 for human TZM-bl cells to IC50 for HIV1 NL4.3 infected in human TZM-bl cells. In kind it is cell-based. The following applies: HIV1 NL4.3 infected TZM-bl cells, read-out: Ratio CC50/IC50.
A short description of data set [2]: Cytotoxicity against human TZM-bl cells assessed as cell viability after 48 hrs by MTT assay. Format: cell-based. The following applies: for CC50 at 48 h: TZM-bl cells. For orientation: Tetrazolium dyes change colour on reduction, which living cells bring about.
Data set [3] deals with Human immunodeficiency virus 1. Description: Antiviral activity against HIV1 NL4.3 infected in human TZM-bl cells expressing CXCR4-tropic incubated for 1 hr prior to infection measured after 48 hrs by luciferase reporter gene assay. In kind it is functional, organism-based. The following applies: Human immunodeficiency virus 1, NL4.3, TZM-bl.
Data set [4] has as its target Human immunodeficiency virus type 1 integrase (Human immunodeficiency virus 1, UniProt Q7ZJM1). In words: (§1) Inhibition of HIV1 integrase.
The target in data set [5] is Human immunodeficiency virus type 1 integrase (Human immunodeficiency virus 1) (UniProt Q7ZJM1). The description is as §1.
In data set [6] the test system is Human immunodeficiency virus 1. Description: Antiviral activity against HIV1 NL4.3 infected in human TZM-bl cells expressing CXCR4-tropic at 50 uM incubated for 1 hr prior to infection measured after 48 hrs by luciferase reporter gene assay. Format: functional, organism-based. (In a reporter assay the amount or activity of a reporter protein is the signal.)

Activity calls are given as the source filed them. The calls are words filed in the database; no cut-off is given here.

Human immunodeficiency virus type 1 integrase, sequence (Q7ZJM1 whole entry): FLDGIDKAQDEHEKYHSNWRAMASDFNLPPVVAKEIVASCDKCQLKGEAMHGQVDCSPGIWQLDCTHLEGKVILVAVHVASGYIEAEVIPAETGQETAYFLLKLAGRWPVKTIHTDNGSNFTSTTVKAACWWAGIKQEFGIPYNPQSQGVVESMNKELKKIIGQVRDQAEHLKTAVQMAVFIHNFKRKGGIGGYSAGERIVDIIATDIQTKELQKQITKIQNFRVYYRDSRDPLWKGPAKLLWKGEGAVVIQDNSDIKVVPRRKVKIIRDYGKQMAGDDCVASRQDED
Human immunodeficiency virus type 1 integrase (Human immunodeficiency virus 1), sequence (Q7ZJM1 as listed by the source): as the sequence (Q7ZJM1 whole entry) above

As usually defined, the CC50 is the concentration that lowers cell viability or growth by half. Consider `COC(=O)C12C=CC(=O)C(O)=C1CC(CCC=C(C)C)=CC2` (stereo not drawn), for which, in data set [1], the selectivity ratio was determined as 4. Also, the CC50 at 48 h in data set [2] stood at 693 µM. Also, the IC50 in data set [3] (read-out: IC50) is 171 µM; in data set [3] (read-out: pIC50 (converted)), 170 µM.
Consider `COC(=O)C12C=CC(=O)C(O)=C1CC(CC/C=C(\C)CO)=CC2` (stereo not drawn), for which the selectivity ratio in data set [1] turned out to be 1. In addition, the CC50 at 48 h in data set [2] came out at 383 µM. Moreover, the IC50 was 285 µM in data set [3] (read-out: IC50) and 282 µM in data set [3] (read-out: pIC50 (converted)).
For `C=C(C=O)[C@@H]1C[C@@]2(C)C(=CC1=O)[C@H](OC(=O)/C(C)=C/C(C)CCCC)CC[C@@H]2C(=O)O` (stereo partly drawn), the IC50 in data set [3] (read-out: IC50) and in data set [3] (read-out: pIC50 (converted)) was 10 µM each time.
In the case of `CC(C)=CCC1C(C)=CCc2c1ccc(O)c2O` (stereo not drawn), the selectivity ratio in data set [1] stood at 46. The values for the IC50 in data set [4], in data set [3] (read-out: IC50) and in data set [3] (read-out: pIC50 (converted)) were 11.1 µM, 4.6 µM and 4.57 µM, respectively. Moreover, the inhibition result in data set [5] was “Dose-dependent effect”. In addition, the CC50 at 48 h in data set [2] is 211 µM.
As to `COC(=O)C12C=CC(=O)C(O)=C1CC(CC/C=C(\C)C=O)=CC2` (stereo not drawn), the selectivity ratio in data set [1] is 4. Besides, the CC50 at 48 h in data set [2] is 625 µM. For the same compound, the IC50 is 172 µM in data set [3] (read-out: IC50) and 170 µM in data set [3] (read-out: pIC50 (converted)).
In the case of `CC(C)=CCCC1=CCc2c(O)ccc(O)c2C1`, in data set [2] (tzm, 48 h), the CC50 result was “Not Active”. Further, the outcome in data set [6] was inactive.
Regarding `CC(C)=CCC1C(C)=CCc2c(O)ccc(O)c21` (stereo not drawn), the selectivity ratio in data set [1] came out at 11. Moreover, the IC50 in data set [4] is 11.5 µM; in data set [3] (read-out: IC50), 12.4 µM; in data set [3] (read-out: pIC50 (converted)), 12.3 µM. The inhibition entry in data set [5] was “Dose-dependent effect”. The CC50 at 48 h in data set [2] worked out at 140 µM.
With `COC(=O)C12C=CC(=O)C(O)=C1CC=C(C)C2C/C=C(\C)CO` (stereo not drawn), in data set [1], the selectivity ratio came out at 13. Further, the CC50 at 48 h in data set [2] was found to be 928 µM. Further, the IC50 in data set [3] (read-out: IC50) is 72.7 µM; in data set [3] (read-out: pIC50 (converted)) it was 72.4 µM.
On to `COC(=O)C12C=CC(=O)C(O)=C1CC=C(C)C2CC=C(C)C` (stereo not drawn), for which the selectivity ratio in data set [1] is 11. For the same compound, in data set [2], the CC50 at 48 h worked out at 56.4 µM. For the same compound, the IC50 in data set [3] (read-out: IC50) is 5 µM; in data set [3] (read-out: pIC50 (converted)), 5.01 µM.
Turning to `Cc1nnc(C(=O)NC(C)(C)c2nc(C(=O)NCc3ccc(F)cc3)c(O)c(=O)n2C)o1`, the CC50 at 48 h in data set [2] came out at 856 µM. In addition, the results for the IC50 in data set [3] (read-out: IC50) and in data set [3] (read-out: pIC50 (converted)) were 0.5 µM and 0.501 µM, respectively.
With `COC(=O)C12C=CC(=O)C(O)=C1CC=C(C)C2C/C=C(\C)C=O` (stereo not drawn), the selectivity ratio in data set [1] amounted to 10. For the same compound, the CC50 at 48 h in data set [2] amounted to 627 µM. Besides, the figures for the IC50 in data set [3] (read-out: IC50) and in data set [3] (read-out: pIC50 (converted)) were 60.7 µM and 60.3 µM, respectively.
With `CC(C)=CCCC1=CCc2ccc(O)c(O)c2C1`, the selectivity ratio in data set [1] stood at 11. In addition, the IC50 in data set [4] is 13.4 µM; in data set [3] (read-out: IC50), 12.3 µM; in data set [3] (read-out: pIC50 (converted)) it was 12.3 µM. For the same compound, the inhibition entry in data set [5] is “Dose-dependent effect”. The CC50 at 48 h in data set [2] came out at 138 µM.
Turning to `COC(=O)C12C=CC(=O)C(OC(C)=O)=C1CC=C(C)C2CC=C(C)C` (stereo not drawn), the selectivity ratio in data set [1] came out at 18. For the same compound, the CC50 at 48 h in data set [2] worked out at 677 µM. Besides, the IC50 in data set [3] (read-out: IC50) is 36.7 µM; in data set [3] (read-out: pIC50 (converted)) it was 36.3 µM.

The record behind these values is ChEMBL document CHEMBL3098125, “Synthesis, anti-HIV activity, integrase enzyme inhibition and molecular modeling of catechol, hydroquinone and quinol labdane analogs” (Bioorg Med Chem Lett, 2014).
